Read-outs that look alike come from different tables or passages of the source.
Columns and labels:
E. coli ClpP [1] = target: T1, E. coli ClpP (Escherichia coli, UniProt P0A6G7); assay: Fluorescence-based E. coli ClpP proteolytic activity assay (Suc-LY-AMC), primary screen and dose-response; type: biochemical; details: for E. coli ClpP inhibition [%] in the primary screen: 200 µM
T1 construct: His-tag; made in house; host or cells: E. coli SG1146a
Description: Briefly, 25 ng/μL of E. coli ClpP dissolved in a buffer containing 100 mM NaCl, 100 mM 4-(2-hydroxyethyl)-1-piperazineethanesulfonic acid (HEPES) pH 7.5, and 0.05% Brij® 35 were transferred into each well. Test compound addition (final concentration 200 µM) was carried out using an Echo® 550 liquid handling system (Labcyte, Sunnyvale, CA, USA). […] Changes in fluorescence (excitation 350 nm, emission 435 nm) were monitored at 1 min intervals at 30 °C over 1 h using an Infinite M1000 microplate reader (Tecan).
The assay was carried out as described above with increasing concentrations of test compounds. Dose-response experiments were done at least 3 times independently, each in technical triplicates.
Calculation of Z prime (Z’) for HTS assay performance was done according to Zhang et al.. Plates were considered for further analyses if Z’ > 0.6 [26].

bovine α-chymotrypsin = target: T2, bovine α-chymotrypsin (Bos taurus, UniProt P00766); assay: Serine protease selectivity assay with bovine α-chymotrypsin (Suc-LY-AMC); type: biochemical; details: 200 μM compound concentration
T2 construct: purchased Sigma-Aldrich C4129
Description: Compound selectivity was assessed using bovine α-chymotrypsin (#C4129, Sigma-Aldrich, St. Louis, MO, USA) at 200 µM. The assay was carried out as described above, except that 1 ng/μL of α-chymotrypsin and 100 μM of Suc-LY-AMC substrate were dissolved in a buffer containing 150 mM NaCl, 10 mM CaCl2, 50 mM Tris-HCl, and 0.05% Brij® 35.

in vitro = type: cell-based; details: human, 48 h incubation, 1:3 dilutions starting from 200 μM
Description: (§1) Potential cell toxicity of the tested compounds was evaluated by ATP quantification using the CellTiter-Glo® luminescent cell viability assay (Promega, Madison, WI, USA). […] After incubation, 20 µL of CellTiter-Glo® reagent were added per well and incubated at room temperature in the dark for another 30 min. Luminescence was quantified by an EnVision multi-plate reader (PerkinElmer, Rodgau, Germany).

A549 cells = assay: in vitro; type: cell-based
Description: as §1

HTC-116 cells = assay: in vitro; type: cell-based
Description: as §1

MCF-7 cells = assay: in vitro; type: cell-based
Description: as §1

E. coli ClpP [2] = target: T1, E. coli ClpP; assay: Surface plasmon resonance binding to immobilized ClpP; details: 80 µM, injected over 7 min, 30 min dissociation
Description: E. coli ClpP (80 μg/mL) protein was immobilized, using amine coupling (SPR-AS-HCA-03, Bruker Daltonics Inc., Billerica, MA, USA), onto the surface of the sensor chip of a SIERRA SPR-16 instrument (Bruker Daltonics GmbH, Bremen, Germany). ClpP protein was dissolved in acetate at pH 4. The running buffer contained 150 mM NaCl, 10 mM Hepes, 3 mM EDTA, and 0.05% (v/v) Tween-20. The flow rate for protein immobilization was 10 μL/min. Binding experiments were carried out using running buffer with the addition of 0.8% (v/v) of DMSO and 80 µM test substance (flow rate of 20 μL/min for 7 min and up to 30 min of dissociation time). […] SPR data were analyzed using the Analyzer 3 software (Bruker Daltonics GmbH), which includes algorithms for subtracting reference signals and accounting for non-specific interactions between the solvent and the sensor chip surface.

[3] = test system: E. coli BW25-113 (wild type); assay: Antibacterial growth inhibition assay in MHB, wild type; type: cell-based; details: 24 h; for inhibition at 100 µM: Escherichia coli, read-out: Growth Inhibition (%)
Description: (§2) The potential of hit compounds to interfere with bacterial growth was evaluated in E. coli BW25-113 (wild type) and tolC-deficient strain E. coli JW5503 [34] (obtained from the NBRP-E. coli collection at the National Institute of Genetics, Mishima, Japan). The effect of the compounds on wild-type strain E. coli BW25-113 and the isogenic clpP-deficient E. coli JW0427-1 [34] (coli genetic stock center, New Haven, CT, USA) were measured in the presence of the efflux pump inhibitor Phe-Arg β-naphthylamide dihydrochloride (#P4157, Sigma-Aldrich, USA) at 25 μM. Single colonies of the bacterial strains from Mueller Hinton Agar culture were used to inoculate 5 mL of saline solution. The suspension was transferred into fresh, sterile Mueller Hinton broth (MHB) medium, resulting in a final concentration of 10^6 CFU/mL. Growth assays were carried out in 96-well, flat-bottom, sterile clear plates (#167008, Nunc, VWR, Radnor, PA, USA) and compounds were tested at 50 and 100 μM concentration (2% DMSO). Absorbance at 600 nm was measured using the Multiskan GO or Varioskan LUX plate reader (Thermo Fisher Scientific, Vantaa, Finland) for 24 h at hourly intervals. Between measurements, plates were incubated in a shaking incubator (500 rpm) at 37 °C.

[4] = test system: E. coli BW25-113 (wild type); assay: Growth delay under nitric oxide stress (DPTA NONOate) in M9 medium, wild type; type: cell-based; details: WT E. coli, both tested concentrations (50 and 100 μM), M9 minimal medium
Description: (§3) Assessment of E. coli growth delay in presence of nitric oxide stress was carried out following our recently published protocol, which is an adaptation of the method reported by Robinson and Brynildsen to a 96-well plate format. Fresh MHB medium was inoculated with isolated colonies of E. coli BW25-113 or E. coli JW0427-1, grown on Luria Agar, and left overnight in a shaking incubator (250 rpm) at 37 °C. On the following day, the overnight culture was used to inoculate fresh M9 medium (supplemented with 10 mM glucose) 1:100, and was grown until OD600 ~0.3. Afterwards, the culture was transferred into 96-well, flat-bottom, sterile clear plates (#167008, Nunc, VWR). Bacterial OD600 was adjusted to 0.1 with M9 medium (supplemented with 10 mM glucose). Test compounds were transferred into the 96-well plates, followed by addition of the bacterial culture. Nitric oxide stress was induced by addition of 2 mM DPTA NONOate ((Z)-1-[N-(3-aminopropyl)-N-(3-ammoniopropyl)amino]diazen-1-ium-1,2-diolate, Cayman Chemical, Ann Arbor, MI, USA), dissolved in NaOH (final concentration 0.14 mM). Absorbance measurements (600 nm) were done with a Multiskan GO or Varioskan LUX plate reader (Thermo Fisher Scientific, Finland) at hourly intervals for 24 h. Between measurements, plates were incubated in a shaking incubator (500 rpm) at 37 °C.

E. coli JW0427 (ΔclpP) [5] = assay: Growth delay under nitric oxide stress (DPTA NONOate) in M9 medium, clpP-deficient strain; type: cell-based; details: clpP-deficient E. coli, DPTA NONOate, compared with cells without compound
Description: as §3

E. coli JW0427 (ΔclpP) [6] = assay: Antibacterial growth inhibition assay in MHB, clpP-deficient strain; type: cell-based; details: Escherichia coli, 24 h, read-out: Growth Inhibition (%)
Description: as §2

E. coli JW5503 (ΔtolC) = assay: Antibacterial growth inhibition assay in MHB, efflux pump-defective strain; type: cell-based; details: Escherichia coli, 24 h, read-out: Growth Inhibition (%)
Description: as §2

[7] = read-out: E. coli ClpP inhibition [%] in the primary screen, primary screen, 200 µM
[8] = read-out: Inhibition (%) at 200 μM E. coli ClpP, 200 μM compound concentration
[9] = A549 cells, read-out: Cytotoxicity A549 IC50
[10] = HTC-116 cells, read-out: Cytotoxicity HTC-116 IC50
[11] = MCF-7 cells, read-out: Cytotoxicity MCF-7 IC50
[12] = E. coli WT, without PAβN, 100 μM, 37 °C, MHB

T1 sequence (P0A6G7 15-207): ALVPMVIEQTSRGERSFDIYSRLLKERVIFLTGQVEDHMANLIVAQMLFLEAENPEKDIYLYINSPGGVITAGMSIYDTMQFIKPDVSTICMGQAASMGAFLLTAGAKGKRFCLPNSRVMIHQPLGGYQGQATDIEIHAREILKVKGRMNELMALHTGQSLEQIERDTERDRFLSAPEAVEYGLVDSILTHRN

| SMILES | IC50 (E. coli ClpP [1]) | E. coli ClpP inhibition [%] in the primary screen (E. coli ClpP [1]) | inhibition at 200 µM (E. coli ClpP [1]; [7]) | inhibition at 200 µM (E. coli ClpP [1]; [8]) | Inhibition (%) at 200 μM α-Chymotrypsin (bovine α-chymotrypsin) | inhibition at 200 µM (bovine α-chymotrypsin) | IC50 at 48 h (in vitro; [9]) | IC50 at 48 h (in vitro; [10]) | IC50 at 48 h (in vitro; [11]) | Cytotoxicity A549 Ratio (IC50 cytotoxicity/IC50 ClpP) (A549 cells; A549) | Cytotoxicity HTC-116 Ratio (IC50 cytotoxicity/IC50 ClpP) (HTC-116 cells; HTC-116) | Covalent / irreversible binding to ClpP by SPR (E. coli ClpP [2]) | Bacterial growth in absence of NO• stress [4] | inhibition at 100 µM (E. coli JW0427 (ΔclpP) [6]) | other results |
| --- | --- | --- | --- | --- | --- | --- | --- | --- | --- | --- | --- | --- | --- | --- | --- |
| O=c1oc(Cl)c(Cl)c2ccccc12 [3,4-DIC, 3,4-dichloroisocoumarin] | 4.9 µM | > 90% | 98.9% | 98.9% | completely inhibited | 101% | 44.7 µM | 45.1 µM | 9.06 µM | 9.12 | 9.2 | covalent binding | small growth delay | – | Cytotoxicity MCF-7 Ratio (IC50 cytotoxicity/IC50 ClpP) (MCF-7 cells; MCF-7): 1.85; Growth Inhibition (%) [3, 12]: did not show any intrinsic antimicrobial activities; Growth delay in presence of nitric oxide stress (E. coli JW0427 (ΔclpP) [5]): did not show any significant effect |
| CC(C)C[C@H](NC(=O)[C@H](Cc1ccccc1)NC(=O)c1cnccn1)B(O)O [Bortezomib, bortezomib] | 0.04 µM | > 90% | 100% | 100% | completely inhibited | 97.8% | – | – | – | – | – | covalent binding | did not show any effect | 100% | Cytotoxicity A549 Ratio (IC50 cytotoxicity/IC50 ClpP) (A549 cells): 0.005; Cytotoxicity HTC-116 Ratio (IC50 cytotoxicity/IC50 ClpP) (HTC-116 cells): 0.005; Cytotoxicity MCF-7 Ratio (IC50 cytotoxicity/IC50 ClpP) (MCF-7 cells): 1; SPR signal (resonance units, RU) (E. coli ClpP [2]): low change of absolute resonance unit; inhibition at 100 µM [3]: 55% |
| CO[C@@]1(NC(=O)CSCC#N)C(=O)N2C(C(=O)O)=C(CSc3nnnn3C)CS[C@@H]21 [Cefmetazole, cefmetazole] | 3.4 µM | > 90% | 94.5% | 94.5% | no inhibition | 0% | 250 µM | 5430 µM | 74.1 µM | 73.53 | 1597.06 | – | – | 100% | inhibition at 100 µM [3, 12]: 100%; inhibition at 100 µM (E. coli JW5503 (ΔtolC)): 100% |

Source: article PMC6600665, “Identification and Characterization of Approved Drugs and Drug-Like Compounds as Covalent Escherichia coli ClpP Inhibitors” (International Journal of Molecular Sciences, 2019)
